Measured values as given in PMC11706420, “Establishing a physiologically based pharmacokinetic framework for aldehyde oxidase and dual aldehyde oxidase‐CYP substrates” (CPT: Pharmacometrics & Systems Pharmacology, 2024).
Read-outs that look alike come from different tables or passages of the source. Blank lines part the entries; values can stand above or below the compound they belong to.

Legend:
aldehyde oxidase (AO) [1] = biological target: T1, aldehyde oxidase (AO) (Homo sapiens, UniProt Q06278); conditions: cited from earlier work
T1 sequence (Q06278 1-1338): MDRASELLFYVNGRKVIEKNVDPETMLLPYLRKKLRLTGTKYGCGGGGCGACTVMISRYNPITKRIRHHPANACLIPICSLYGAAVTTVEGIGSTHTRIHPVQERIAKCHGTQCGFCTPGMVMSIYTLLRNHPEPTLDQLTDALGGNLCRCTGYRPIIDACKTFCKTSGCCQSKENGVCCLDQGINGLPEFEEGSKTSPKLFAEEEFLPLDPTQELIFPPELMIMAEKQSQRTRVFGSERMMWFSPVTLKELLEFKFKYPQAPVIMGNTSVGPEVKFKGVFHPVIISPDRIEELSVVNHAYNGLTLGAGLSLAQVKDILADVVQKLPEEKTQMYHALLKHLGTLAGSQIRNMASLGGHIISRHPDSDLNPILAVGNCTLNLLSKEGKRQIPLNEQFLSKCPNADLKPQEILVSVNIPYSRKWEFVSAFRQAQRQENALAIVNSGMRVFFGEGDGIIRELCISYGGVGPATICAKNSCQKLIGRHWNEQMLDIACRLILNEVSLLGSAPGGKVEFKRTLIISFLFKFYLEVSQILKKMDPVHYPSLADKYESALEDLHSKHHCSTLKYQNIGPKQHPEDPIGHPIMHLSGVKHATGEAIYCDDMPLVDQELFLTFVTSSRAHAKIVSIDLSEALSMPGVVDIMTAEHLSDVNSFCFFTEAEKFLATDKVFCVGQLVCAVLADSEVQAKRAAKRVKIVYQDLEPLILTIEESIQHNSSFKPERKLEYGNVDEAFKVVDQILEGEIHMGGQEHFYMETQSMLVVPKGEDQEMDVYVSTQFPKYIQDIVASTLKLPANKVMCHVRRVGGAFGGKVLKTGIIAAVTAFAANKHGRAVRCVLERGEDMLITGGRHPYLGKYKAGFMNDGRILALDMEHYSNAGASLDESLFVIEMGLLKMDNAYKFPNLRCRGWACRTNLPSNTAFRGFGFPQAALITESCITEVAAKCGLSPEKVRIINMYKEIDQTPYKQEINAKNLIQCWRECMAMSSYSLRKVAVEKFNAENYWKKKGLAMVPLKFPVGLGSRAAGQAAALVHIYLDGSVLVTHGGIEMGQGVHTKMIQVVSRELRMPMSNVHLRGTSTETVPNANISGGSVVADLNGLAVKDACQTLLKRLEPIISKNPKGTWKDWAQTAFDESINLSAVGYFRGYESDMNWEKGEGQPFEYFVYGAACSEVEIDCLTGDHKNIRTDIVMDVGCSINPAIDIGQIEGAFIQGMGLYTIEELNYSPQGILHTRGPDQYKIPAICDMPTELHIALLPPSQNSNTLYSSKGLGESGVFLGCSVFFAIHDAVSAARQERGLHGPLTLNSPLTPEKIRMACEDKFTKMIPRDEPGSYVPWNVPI

in vitro = conditions: both, human, microsomes
Procedure: Subcellular fractions of human and dog liver were sourced from XenoTech (Kansas City, KS, USA). In vitro CLint,u was measured with substrate depletion and binding assays for all compounds (1 μM) in human liver microsomes (HLM; 0.25–0.5 mg/mL) and HLC (1 mg/mL).
Microsomal clearance incubations (CLint):
Human liver microsomes were stored at −80°C and rapidly thawed just before use at 37°C.
All compounds were mixed with HLM and 50 mM
phosphate buffer. 450 µL of the mixture was added to 1.2mL cluster tubes in a 96-well block in
duplicate and warmed in a water bath (Thermo Scientific Precision™,Waltham MA, USA ) at 37°C for
5 min. Reactions were initiated by the addition of 50 µL from 10 mM of NADPH stock in 50 mM
phosphate buffer (final NADPH concentration, 1 mM). The final incubation contained 1 µM test
compound in 500 µL total volume with 0.02% DMSO. At each time point (5, 10, 20, 30, and 60 min),
60 µL of incubation mixture was added to 120 uL of quench solutions (MeOH:ACN, 1:1, v:v)
containing internal standard (0.5 µM carbutamide). The mixture was centrifuged at 3000 rpm for 20
min (Eppendorf 5810R, Hamburg, Germany). Supernatant was injected to HPLC-MS/MS with for data
Data analysis for substrate depletion assays:
Data from the microsomal and cytosolic incubations were analyzed using GraFit 7 (Erithacus Software,
Horley, UK) to determine the elimination rate constant (k), which was used in CLint calculation (Eq.
S9). A nonlinear single exponential fit was used for all compounds.
𝐶𝐿 = 𝑘 × 𝑣𝑜𝑙𝑢𝑚𝑒 𝑜𝑓 𝑖𝑛𝑐𝑢𝑏𝑎𝑡𝑖𝑜𝑛 (Eq S9)

[2] = cited from earlier work
[3] = Cytosolic binding (fucyt), dog liver cytosol; conditions: 1 mg/mL; n=3, mean (CV%)
Procedure: In vitro data were generated to inform the PBPK models of the selected drugs (Supplement 1 in Appendix S1; Table S1). Subcellular fractions of human and dog liver were sourced from XenoTech (Kansas City, KS, USA). In vitro CLint,u was measured with substrate depletion and binding assays for all compounds (1 μM) in human liver microsomes (HLM; 0.25–0.5 mg/mL) and HLC (1 mg/mL). HLC pool was prepared from livers perfused with Custodiol HTK (histidine tryptophan ketoglutarate) solution, marketed as having preserved “high AO/XO activity.”[15] Dog liver cytosols (DLC; 1 mg/mL) were used to investigate cytosolic binding in the absence of AO. Routine in vitro assays were used to quantify unbound fraction in plasma (fup), blood‐to‐plasma ratio (B/P), and apparent permeability (Papp) through transwell transport assays utilizing canine Mdr1 knockout and empty vector‐transfected MDCKI cells.
𝐶𝐿 = 𝑘 × 𝑣𝑜𝑙𝑢𝑚𝑒 𝑜𝑓 𝑖𝑛𝑐𝑢𝑏𝑎𝑡𝑖𝑜𝑛 (Eq S9)
Cytosolic binding (fucyt):
The fraction unbound in human liver cytosols (fucyt) of compounds was determined by equilibrium
dialysis using the RED device (Thermo Fisher, Waltham MA, USA) with a molecular weight cut-off of
8 kDa. Dog or human liver cytosols at 1 mg/mL with 1 µM of compounds (300 µL, n=3 per compound)
were added to the donor compartment in 100 mM potassium phosphate buffer with final DMSO
liver cytosols to inactivate AO, whereas dog was used as a natural AO knock-out model. 500 µL of 100
mM potassium phosphate buffer (pH 7.35) was added to the receiver chamber for each replicate.
RED device was then sealed with an adhesive foil and incubated on an orbital shaker at 450 rpm (VWR
Symphony) at 37°C with 5 % CO2. After reaching equilibrium for 4 hours, aliquots from both the
receiver (30µL) and donor (30µL) sides of the membrane were matrix matched, and then quenched with
180 µL of cold ACN with 100 nM propranolol (internal standard). The samples were placed in a
Beckman Coulter Allegra x 12R Centrifuge (Brea, CA) for 15 minutes at 3700 rpm. After centrifugation,
the supernatant of each sample was diluted 1:2 and analyzed by LC -MS/ MS. Matrix stability and
recovery were assessed in triplicates and followed identical sample preparation.
Microsomal binding (fumic):
(§10) The fraction unbound in human liver microsomes (fumic) of compounds was determined by equilibrium
(§11) dialysis using the high-throughput dialysis method 2 using membranes from HTDialysis, LLC (Gales
(§12) Ferry, CT) having 12 to 14 kDa molecular mass cutoff. Deactivated HLM (by leaving the HLM
(§13) incubation media on the bench overnight at ambient temperature) at 0.25 mg/mL with 2 µM of
(§14) compounds (a final concentration of DMSO as 1%) was added to the donor compartment in 50 mM
(§15) phosphate buffer containing 1 M MgCl2. (150 µL, n=4 per compound). 150 µL of Dulbecco’s PBS
(§16) buffer (pH 7.4) was added to the receiver chamber for each replicate. After reaching equilibrium for 6
(§17) h on a plate shaker (200 rpm) at 37°C in a humidified CO2 incubator (5% CO2), aliquots from both the
(§18) receiver (45 µL) and donor (15 µL) sides of the membrane were matrix matched and analyzed by LC-
(§19) MS/MS. Matrix stability (n=3) and % of recovery (n=4) were assessed.
(§20) Data analysis for binding in microsomal and cytosolic incubations:
(§21) Fraction unbound in microsomal (fumic) and cytosolic (fucyt) incubations were calculated via Eq. S10-11
(§22) based on the ratio of the peak areas of analyte and internal standard.
(§23) 𝑃𝑒𝑎𝑘 𝐴𝑟𝑒𝑎 𝑅𝑎𝑡𝑖𝑜 = (𝑃𝑒𝑎𝑘 𝐴𝑟𝑒𝑎 𝑜𝑓 𝐴𝑛𝑎𝑙𝑦𝑡𝑒)/(𝑃𝑒𝑎𝑘 𝐴𝑟𝑒𝑎 𝑜𝑓 𝐼𝑛𝑡𝑒𝑟𝑛𝑎𝑙 𝑆 tan 𝑑 𝑎𝑟𝑑) (Eq. S10)
(§24) 𝑓𝑢𝑚𝑖𝑐 𝑜𝑟 𝑓𝑢𝑐𝑦𝑡 = (𝑃𝑒𝑎𝑘 𝐴𝑟𝑒𝑎 𝑅𝑎𝑡𝑖𝑜 𝑖𝑛 𝑟𝑒𝑐𝑒𝑖𝑣𝑒𝑟 𝑐𝑜𝑚𝑝𝑎𝑟𝑡𝑚𝑒𝑛𝑡)/
(§25) concentration (0.5 mg/mL) using Hallifax and Houston algorithm (Hallifax and Houston, 2006). Matrix
(§26) stability and recovery were assessed using Eq. S12 and Eq. S13.
(§27) %𝑠𝑡𝑎𝑏𝑖𝑙𝑖𝑡𝑦 = (𝐴𝑣𝑒𝑟𝑎𝑔𝑒 𝑝𝑒𝑎𝑘 𝑎𝑟𝑒𝑎 𝑖𝑛 𝑚𝑎𝑡𝑟𝑖𝑥 𝑎𝑡 𝑡ℎ𝑒 𝑒𝑛𝑑 𝑜𝑓 𝑖𝑛𝑐𝑢𝑏𝑎𝑡𝑖𝑜𝑛)/
(§28) (𝐴𝑣𝑒𝑟𝑎𝑔𝑒 𝑝𝑒𝑎𝑘 𝑎𝑟𝑒𝑎 𝑎𝑡 𝑇 = 0) × 100 (Eq. S12)
%𝑟𝑒𝑐𝑜𝑣𝑒𝑟𝑦 = (𝐴 + 𝐵)/𝐶 × 100 (Eq. S13)
(§29) where A is the average peak area ratio of all matrix samples, B is the average peak area ratio

[4] = In vitro permeability (Papp), transwell transport; conditions: dog, MDCK
[5] = Microsomal binding (fumic); conditions: corrected with Hallifax&Houston algorithm
Procedure: Microsomal binding (fumic):
as §10, §11, §12, §13, §14, §15, §16, §17, §18, §19, §20, §21, §22, §23, §24, §25, §26, §27, §28
%𝑟𝑒𝑐𝑜𝑣𝑒𝑟𝑦 = (𝐴 + 𝐵)/𝐶 × 100 (Eq. S13)
as §29
(§30) of all buffer samples multiplied with the buffer dilution factor and C is the average peak area ratio of

CYP3A4 = conditions: cited from earlier work
[6] = both, human, 6 h, 2 µM, pH 7.4
Procedure: Microsomal binding (fumic):
as §10, §11, §12, §13, §14, §15, §16, §17, §18, §19, §20, §21, §22, §23, §24, §25, §26, §27, §28
%𝑟𝑒𝑐𝑜𝑣𝑒𝑟𝑦 = (𝐴 + 𝐵)/𝐶 × 100 (Eq. S13)
as §29, §30

[7] = Cytosolic binding (fucyt), human liver cytosol with AO inhibitor; conditions: 1 mg/mL; n=3, mean (CV%)
[8] = cited from earlier work; remark: listed apart in the source
[9] = cited from earlier work; remark: listed apart in the source
[10] = Plasma protein binding (fup), rapid equilibrium dialysis; assay type: in vitro ADME, human; conditions: male, human, plasma, 20 h, 1 µM
Procedure: (differing in 2 donors) were used for activity and microsomal binding assays, respectively.
The human biological samples were sourced ethically, and their research use was in accord with the terms of the informed consents under an IRB/EC approved protocol.
Determination of plasma protein binding (fup):
Human plasma (male, K2EDTA) was obtained from BioIVT (Baltimore, MD, USA). A pool of n=20 donors was prepared in-house (batch: 16062022). The plasma protein binding of compounds in human was determined by equilibrium dialysis using the rapid equilibrium dialysis (RED) device (Thermo […]
Frozen blank human plasma […]
solution to a final concentration of 1 µM (0.5 % DMSO). 300 µ L of the fortified plasma samples were subjected to dialysis against 500 µL PBS buffer at pH 7.4, for 6 h at 37 °C in triplicate. After dialysis, 200 µl aliquots of the buffer and the plasma compartments were transferred into micronic tubes. To minimize the potential for non -specific binding to the micronic tubes the buffer sam ples were collected on to 50µl of 10 % bovine serum albumin (BSA). For the assessment of test compound stability in plasma, 300 µl aliquots of the spiked plasma solutions were transferred into micronic tubes and incubated in an air heated incubator at 37°C without shaking for 4 and 20 hours. The remaining spiked protein solutions were frozen and used to measure the initial start concentration ( C0) to calculate the recovery. Sample analysis was achieved by LC -MS/MS and absolute quantification of the drug lev els in the buffer and plasma compartments was achieved via a matrix matched calibration curve (in the presence of an internal standard tolbutamide). All buffer and plasma sample sets were matrix matched […]
for analysis. The samples were centrifuged (15 minutes, 3400 g) and supernatants were transferred to a fresh plate for analysis. The unbound concentration (Cu), and the total concentration (CED) were determined by measurement of the concentration of the test compound in the buffer and plasma compartments of the dialysis cells, respectively. The fraction unbound was calculated using Eq. S1.
fuplasma = Cu/CED (Eq. S1)
The percentage recovery was calculated as the ratio of the sum of the amount in the buffer (Au) and plasma (AED) compartments to the amount at time zero (A0) (Eq. S2). The percentage stability was calculated as the ratio of the concentration of the test compound at the end of the incubation (C t) time […]
% recovery = (( Au + AED ) / A0 ) × 100 (Eq. S2)

[11] = with 25 μM hydralazine; cited from earlier work
[12] = Blood-to-plasma ratio (B/P); assay type: in vitro ADME, human
Excerpt: Determination of blood to plasma ratio (B/P):
Whole human blood was collected on the day of the experiment from healthy volunteers. The collection protocol was approved by an independent ethical committee and all donors signed the consent forms. All samples were registered in the Janssen Biobank.
Prewarmed blood aliquots were mixed with the compounds (final concentrations shown in Suppl. Table 5) with a final organic DMSO solvent concentration of ≤0.1% (v/v). After gentle mixing to avoid haemolysis, blood aliquots were immediately collected for protein precipitation (1:1:8 ratios of blood sample:DMSO:ACN) and centrifugation (10 minutes, 3800 g) and the supernatant was used as a 0-minute reference blood sample. At the same time, blood aliquots were taken and centrifuged (10 minutes, 1200 g) to obtain the plasma portion. Plasma aliquots were then immediately collected for protein precipitation (1:1:8 ratios of plasma sample:DMSO:ACN) and centrifugation (10 minutes, 3800 g) and the supernatant was used as a 0-minute reference plasma sample. The remainder of the blood fraction was incubated (30 min at 37 °C). Following incubation, 30 -minute blood and plasma samples were taken and prepared as described for the reference 0-minute samples.
Mean compound concentration values (n=3 replicates) were calculated for both the blood and plasma samples. A blood-to-plasma concentration ratio was then determined using Eq. S4. […]

UGT1A1 = tested on: UGT1A1; design: method as in suppl. 32; conditions: ref suppl. 32; cited from earlier work
[13] = Inhibitor plasma exposure and plasma binding (literature); assay type: in vivo, human; conditions: Figure 5
Excerpt: (§1) Supplement 5. Exploratory analysis to evaluate potential AO-mediated DDI risks […]
(§2) Semi-mechanistic model for AO-mediated DDI risk predictions
(§3) Supp. Table 4. Summary of inhibitor parameters used in the semi -mechanistic static model to evaluate the risk of AO -mediated DDIs
(§4) Semi-mechanistic model for AO mediated DDI risk predictions: […]
(§5) using the semi-mechanistic static model with listed parameters in Suppl. Table 4. The most conservative approach is used for all compounds with maximum Cmax,u and minimum Ki,u data available. […]
(§6) [I] is the unbound concentration of inhibitors in the liver and was designated as the unbound maximum systemic concentration of inhibitors as a surrogate. 27 Due to the lack of AO kdeg values in the literature, the arithmetic means of all reported P450 kdeg (0.00026 min-1) was used.28, 29 […]
(§7) Table S4. Summary of inhibitor parameters used in the semi-mechanistic static model to evaluate the risk of […]
(§8) bSimcyp v.21 Compound Repository […]
(§9) dCorrected for the 0.05 mg/mL cytosolic protein from the measured fuinc at 1.5 mg/mL cytosolic protein34, 36

aldehyde oxidase (AO) [14] = biological target: T1, aldehyde oxidase (AO); experiment: In vitro AO inhibition (literature); conditions: Figure 5
Excerpt: as §1, §2, §3, §4, §5, §6, §7, §8, §9

UGT1A3 = tested on: UGT1A3; design: method as in suppl. 32; conditions: ref suppl. 32; cited from earlier work
aldehyde oxidase (AO) [15] = biological target: T1, aldehyde oxidase (AO); conditions: cited from earlier work; for Mode of inhibition: ref suppl. 30, 31, 32, 35, 59
[16] = in vivo; cited from earlier work
[17] = observed (mass balance), capmatinib 600 mg section, ref suppl. 8
[18] = DDI study with rifampicin (capmatinib 400, idelalisib 150, lenvatinib 24 mg) or carbamazepine (ziprasidone 20 mg), observed, ref suppl. 15,18,21,25
[19] = with itraconazole (capmatinib 200 mg) or ketoconazole (idelalisib 400, lenvatinib 5, ziprasidone 40 mg), observed, ref suppl. 15,10,17,20,24
[20] = with rifampicin (capmatinib 400, idelalisib 150, lenvatinib 24 mg) or carbamazepine (ziprasidone 20 mg), observed, ref suppl. 15,18,21,25

Structure (SMILES): NC(=O)c1nc(F)c[nH]c1=O [favipiravir]
- fmAO of victim drug in AO DDI reports (aldehyde oxidase (AO) [1]): 0.9

- microsomal CLint at 1 µM (in vitro): 30.4 µL/min/mg
- fucyt, Dog Liver Cytosol with 50 uM Hydralazine [3]: 0.718 (2.47)
- Papp A→B at 120 min, 5 µM [4]: 32 ×10⁻⁶ cm/s
- Papp B→A at 120 min, 5 µM [4]: 29.5 ×10⁻⁶ cm/s
- efflux ratio at 120 min, 5 µM [4]: 0.921
- Predicted fumic for 0.5 mg/mL [5]: 0.707
- Predicted fumic for 1 mg/mL [5]: 0.549
- fumic (PBPK input) [6]: 0.826
- fucyt, Human Liver Cytosol with 5 uM Raloxifene [7]: 0.777 (8.48)
- fucyt, Human Liver Cytosol with 50 uM Hydralazine [7]: 0.831 (2.65)
- % Stability in plasma [10]: 78.8%
- B/P ([12]; 10 ng/mL): 3.95
- B/P ([12]; 5000 ng/mL): 1.37
Structure (SMILES): CNC(=O)c1ccc(-c2cnc3ncc(Cc4ccc5ncccc5c4)n3n2)cc1F [Capmatinib]
- fmAO ([2]; measured in excreta, ref suppl. 8-13): 0.40
- fmAO ([2]; measured in excreta, ref suppl. 8-13, listed as capmatinib): 0.4
- fmAO ([2]; observed (mass balance), min-max where uncertain, Table S10, ref suppl. 8-13): 40
- fmCYP3A4 ([2]; observed (mass balance), min-max where uncertain, ref suppl. 8-12): 60
- fmAO [2, 17]: 40
- fmCYP3A4 [2, 17]: 60
- fmAO ([2]; observed, mass balance): 40%
- fmCYP3A4 ([2]; ref suppl. 8-12): 0.6
- Cmax, control (CYP3A4; DDI study with itraconazole (capmatinib 200 mg) or ketoconazole (idelalisib 400, lenvatinib 5, ziprasidone 40 mg), observed geomean (CV%), ref suppl. 15,10,17,20,24): 1260 ng/mL
- AUCinf, control (CYP3A4; DDI study with itraconazole (capmatinib 200 mg) or ketoconazole (idelalisib 400, lenvatinib 5, ziprasidone 40 mg), observed, ref suppl. 15,10,17,20,24): 5180 ng·h/mL
- AUCinf, control (AUC0-12 for ziprasidone) (CYP3A4; [18]): 11500 ng·h/mL
- Cmax, control (CYP3A4; [18]): 3070 ng/mL
- AUCinf, interaction (CYP3A4; [19]): 7360 ng·h/mL
- Cmax, interaction (CYP3A4; [19]): 1300 ng/mL
- AUCinf, interaction (AUC0-12 for ziprasidone) (CYP3A4; [20]): 3850 ng·h/mL
- Cmax, interaction (CYP3A4; [20]): 1350 ng/mL
- pKa1 ([8]; 47 (per cell)): 12.8[44]
- pKa2 ([8]; 47 (per cell)): 4.55[44]
- logP ([8]; octanol-water, 12 (per cell)): 3.04[44]
- fa [9]: 0.67[48]
- AUCinf ([9]; human, in vivo, po): 14400 (36.9) ng.h/mL
- CLoral ([9]; human, in vivo, po): 51.7 (66.5) L/h
- Cmax ([9]; human, in vivo, po): 3670 (46.6) ng/mL
- CLRenal ([9]; observed, ref Table S2/S3 studies): Negligible
- CLiv/oral [CV%] ([9]; oral, capmatinib weighted mean and CV, ref Table S2/S3 studies): 42.3 [60] (weighted mean and CV) L/h
- HH CLint, non-AO [11]: 7.8[21] μL/min/10^6 hepatocytes

- Cmax,u [13]: 0.57 µM
- Ki (aldehyde oxidase (AO) [14]; cytosol, KI,u): 920 nM
- Ki (aldehyde oxidase (AO) [14]; cytosol, Ki,u): 350 nM
Structure (SMILES): C#Cc1cccc(Nc2ncnc3cc4c(cc23)OCCOCCOCCO4)c1 [Icotinib]
- IC50 (UGT1A1): 12.2 µM
- Ki (UGT1A3): 25.6 µM
- Mode of inhibition (aldehyde oxidase (AO) [15]): Time-dependent
- Maximal inactivation rate (kinact) (aldehyde oxidase (AO) [15]; ref suppl. 32): 0.55 min⁻¹

Structure (SMILES): C#Cc1cccc(Nc2ncnc3cc(OCCOC)c(OCCOC)cc23)c1 [Erlotinib]
- IC50 (UGT1A1): 1.34 µM
- Cmax,u [13]: 0.42 µM
- Ki (aldehyde oxidase (AO) [14]; KI,u): 500 nM
- Ki (aldehyde oxidase (AO) [14]; Ki,u): 130 nM
- Ki (UGT1A3): 3.02 µM
- Cmax [16]: 6.06 µM
- Mode of inhibition (aldehyde oxidase (AO) [15]): Time-dependent

Structure (SMILES): O=C(Nc1ccc(OC(F)(F)F)cc1)c1sccc1NCc1ccnc2ccccc12 [OSI-930]
- fmAO of victim drug in AO DDI reports (aldehyde oxidase (AO) [1]): 0.46
